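Method: 48-hour compound exposure of cells in 96-well plates, five concentrations, linear interpolation of endpoints. At the TGI there is no net growth.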
Experiments:
Experiment in all cases: NCI tumour cell line growth inhibition, 48 h
[1] = test system: DLD-1 colon
[2] = test system: DMS 114 small cell lung
[3] = test system: HOP-18 NSCLC
[4] = test system: M19-MEL melanoma
[5] = test system: SNB-78 CNS
[6] = test system: XF 498 CNS
[7] = test system: RXF-631 renal
[8] = test system: P388 leukemia
[9] = test system: P388/ADR leukemia
[10] = test system: SN12K1 renal

Row | SMILES | TGI [1] | TGI [2] | TGI [3] | TGI [4] | TGI [5] | TGI [6] | TGI [7] | TGI [8] | TGI [9] | TGI [10]
1 | C#CCN(Cc1ccc2nc(-c3ccccc3)c(Cl)nc2c1)c1ccc(Cl)c(Cl)c1 | > 100 µM | > 100 µM | > 100 µM | > 100 µM | > 100 µM | > 100 µM |  |  |  | 
2 | Cc1nc(-n2nc(-c3ccccc3)cc2-c2ccccc2)sc1C(/C=C\c1ccc([N+](=O)[O-])cc1)=N/NC(=S)NN | 48.6 µM | > 100 µM |  | > 100 µM | > 100 µM |  |  |  |  | 
3 | CCC(/C(=N/NC(=O)C[N+](C)(C)C)c1ccccc1)C1OC(=O)c2ccccc21 (stereo not drawn) |  | > 100 µM |  | > 100 µM | > 100 µM | > 100 µM | > 100 µM |  |  | 
4 | Nc1nc2c(nnn2C2C=C(CO)C(O)C2O)c(=O)[nH]1 (stereo not drawn) | > 100 µM | > 100 µM | > 100 µM | > 100 µM | > 100 µM | > 100 µM |  |  |  | 
5 | O=C1C2=C(c3ccccc31)C(c1ccc([N+](=O)[O-])cc1)NC(=S)N2 (stereo not drawn) | > 100 µM | > 100 µM |  | > 100 µM |  | > 100 µM | > 100 µM |  |  | 
6 | N#Cc1cc([N+](=O)[O-])ccc1NC(=O)C(=O)Nn1c(=S)[nH]c2ccccc2c1=O | > 100 µM |  | > 100 µM | > 100 µM | > 100 µM | > 100 µM | > 100 µM |  |  | 
7 | O=C(C#Cc1ccccc1)Nc1ccccc1CC(c1c[nH]c2ccccc12)c1c[nH]c2ccccc12 | > 100 µM |  |  | 47.8 µM | 97.6 µM | 70 µM | 74.6 µM |  |  | 
8 | CC(C)c1cccc(C(C)C)c1NC(=O)/C(Cc1nc2ccc(Cl)cc2[nH]c1=O)=N\NC(=O)C[N+](C)(C)C | > 100 µM | > 100 µM |  | > 100 µM |  |  | > 100 µM |  |  | 
9 | CC(=O)Nc1ccc(S(=O)(=O)Nc2cnc3ccccc3n2)cc1 | > 100 µM | > 100 µM | > 100 µM | > 100 µM |  | > 100 µM |  |  |  | 
10 | Cc1ccc(C2=C(c3ccccc3)C(O)(c3ccccc3)C(c3ccccc3)=C2c2ccc(C)cc2)cc1 | > 100 µM |  | > 100 µM | > 100 µM | > 100 µM | > 100 µM | > 100 µM |  |  | 
11 | O=C(Cn1cc(I)c(C(=O)NCC(O)CO)n1)NCC(O)CO (stereo not drawn) | > 100 µM | > 100 µM | > 100 µM | > 100 µM | > 100 µM | > 100 µM |  |  |  | 
12 | COc1ccc(/C=C2\CCC(C)(CN(C)C)C2=O)cc1Br (stereo not drawn) | 37.4 µM | 51.9 µM | > 100 µM | 32.4 µM | 86 µM | 33.1 µM |  |  |  | 
13 | c1ccc(C2SCc3nc4ccccc4n32)cc1 (stereo not drawn) | > 100 µM | 63.4 µM | 51.7 µM | > 100 µM | > 100 µM | 95.4 µM |  |  |  | 
14 | CC(C)C(N=C1CC2CCC1(C(=O)Nc1ccccc1O)C2(C)C)c1ccccc1 (stereo not drawn) | > 10 µM | > 10 µM | > 10 µM | > 10 µM | > 10 µM | > 10 µM | > 10 µM |  |  | 
15 | O=C1C2Cc3ccccc3CN2C(=O)N1CN1CCCCC1 (stereo not drawn) | > 100 µM | > 100 µM |  | > 100 µM |  | > 100 µM |  |  |  | 
16 | Cn1cnc([N+](=O)[O-])c1Sc1nnc(-c2ccc(Cl)cc2)n1C | 26.3 µM | 30.5 µM | 18.1 µM | 27.5 µM | 31.9 µM |  | 30.9 µM |  |  | 
17 | CN(C)c1ccc(/C=C(\C#N)C(=O)c2ccccc2)cc1Br | > 100 µM | > 100 µM | > 100 µM |  | > 100 µM | > 100 µM | > 100 µM |  |  | 
18 | COc1ccc(/C=N/NC(=O)NCCNCCO)cc1 | > 100 µM | > 100 µM | > 100 µM | > 100 µM | > 100 µM |  |  |  |  | 
19 | COC(=O)C12CCC(CC1=O)C2(C)C (stereo not drawn) | > 100 µM | > 100 µM | > 100 µM |  |  | > 100 µM |  |  |  | 
20 | COc1ccc(-c2oc(C=Nc3ccccc3)c([N+](=O)[O-])c2-c2ccc(OC)c(OC)c2)cc1OC | > 100 µM | > 100 µM |  | > 100 µM | > 100 µM | > 100 µM |  |  |  | 
21 | C#CCN1C(=O)CN2C(Cl)(Cl)C2(c2ccccc2)c2cc(Cl)ccc21 (stereo not drawn) | > 100 µM | > 100 µM | > 100 µM | > 100 µM |  |  |  |  |  | 
22 | CCN(CC)CCNC(=O)C1COc2ccc(-c3cc(=O)c4ccccc4o3)cc2O1 (stereo not drawn) | > 77.7 µM |  | 46.7 µM | 32.5 µM | 38.6 µM | 37.3 µM |  | 21.7 µM | 37.1 µM | 31.1 µM
23 | CCN1CC2(CO)CCC(OC)C34C5CC6C(OC)CC(O)(C5C6OC)C(O)(C(OC)C23)C14 (stereo not drawn) | > 59.4 µM | > 375 µM | > 375 µM | > 375 µM | > 375 µM | > 375 µM |  | > 174 µM | > 80.8 µM | > 375 µM
24 | Cc1nc2cc3[nH]c4ccccc4c(=O)c3cc2s1 |  | > 100 µM | > 100 µM | > 100 µM | > 100 µM | > 100 µM |  |  |  | 

Source: PubChem BioAssay (NCI)
